Key:
[1] = target: Serine/threonine-protein kinase B-raf (Homo sapiens, UniProt P15056, V600E); assay: Inhibition of B-raf V600E mutant (unknown origin) expressed in Sf9 cells using biotin-MEK1substrate incubated for 1 hr
[2] = target: RAF proto-oncogene serine/threonine-protein kinase (Homo sapiens, UniProt P04049); assay: Inhibition of human C-raf using biotin-MEK1 substrate incubated for 1 hr
[3] = target: Vascular endothelial growth factor receptor 2 (Homo sapiens, UniProt P35968); assay: Inhibition of KDR (unknown origin) by FRET assay
[4] = target: Proto-oncogene tyrosine-protein kinase Src (Homo sapiens, UniProt P12931); assay: Inhibition of Src (unknown origin) expressed in Escherichia coli using biotin-(E4Y)3 substrate
[5] = target: T1, Tyrosine-protein kinase Tec (Homo sapiens, UniProt P42680); assay: Inhibition of TEC (unknown origin)
T1 sequence (P42680 whole entry): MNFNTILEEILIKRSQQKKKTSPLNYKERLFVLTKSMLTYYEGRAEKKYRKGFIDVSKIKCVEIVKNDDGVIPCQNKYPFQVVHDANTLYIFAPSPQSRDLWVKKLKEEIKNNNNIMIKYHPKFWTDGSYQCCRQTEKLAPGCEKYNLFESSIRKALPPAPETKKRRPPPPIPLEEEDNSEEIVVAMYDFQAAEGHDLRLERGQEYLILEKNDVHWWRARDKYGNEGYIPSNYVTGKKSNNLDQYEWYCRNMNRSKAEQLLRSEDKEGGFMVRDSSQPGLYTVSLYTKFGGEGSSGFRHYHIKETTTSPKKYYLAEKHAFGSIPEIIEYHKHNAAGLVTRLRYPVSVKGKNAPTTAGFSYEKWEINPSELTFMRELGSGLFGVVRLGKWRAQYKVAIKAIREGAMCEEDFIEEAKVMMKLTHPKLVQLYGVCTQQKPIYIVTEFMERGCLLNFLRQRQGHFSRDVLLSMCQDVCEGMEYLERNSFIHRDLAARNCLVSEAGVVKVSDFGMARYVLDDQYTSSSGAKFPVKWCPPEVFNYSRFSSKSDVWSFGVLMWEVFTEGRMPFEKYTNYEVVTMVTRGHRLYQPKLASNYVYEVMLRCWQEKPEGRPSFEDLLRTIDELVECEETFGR

[6] = target: Macrophage colony-stimulating factor 1 receptor (Homo sapiens, UniProt P07333); assay: Inhibition of Fms (unknown origin)
[7] = target: Mast/stem cell growth factor receptor Kit (Homo sapiens, UniProt P10721); assay: Inhibition of Kit (unknown origin) expressed in Escherichia coli
[8] = target: High affinity nerve growth factor receptor (Homo sapiens, UniProt P04629); assay: Inhibition of TrkA (unknown origin)
[9] = target: T2, Serine/threonine-protein kinase A-Raf (Homo sapiens, UniProt P10398); assay: Inhibition of A-Raf (unknown origin)
T2 sequence (P10398 whole entry): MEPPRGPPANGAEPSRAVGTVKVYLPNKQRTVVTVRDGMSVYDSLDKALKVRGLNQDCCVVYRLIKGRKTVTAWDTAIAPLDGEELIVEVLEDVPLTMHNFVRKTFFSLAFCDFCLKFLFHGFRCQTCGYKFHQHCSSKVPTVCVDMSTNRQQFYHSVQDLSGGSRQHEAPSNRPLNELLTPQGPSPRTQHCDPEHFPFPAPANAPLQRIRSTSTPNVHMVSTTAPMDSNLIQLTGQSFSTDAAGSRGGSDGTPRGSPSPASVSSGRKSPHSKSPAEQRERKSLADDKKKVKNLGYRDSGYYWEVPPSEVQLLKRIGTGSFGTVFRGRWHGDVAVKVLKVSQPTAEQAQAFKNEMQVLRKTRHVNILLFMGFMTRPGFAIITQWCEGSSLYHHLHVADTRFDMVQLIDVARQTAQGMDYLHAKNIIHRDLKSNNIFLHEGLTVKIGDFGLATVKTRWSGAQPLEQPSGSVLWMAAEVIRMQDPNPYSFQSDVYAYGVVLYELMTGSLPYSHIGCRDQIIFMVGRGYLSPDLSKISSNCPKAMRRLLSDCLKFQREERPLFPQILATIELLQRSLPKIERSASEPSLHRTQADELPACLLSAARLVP

[10] = target: Serine/threonine-protein kinase B-raf (Homo sapiens, UniProt P15056); assay: Inhibition of N-terminal GST-tagged human recombinant B-Raf (416 to end residues) using biotin-MEK1 substrate incubated for 1 hr
[11] = target: Tyrosine-protein kinase BTK (Homo sapiens, UniProt Q06187); assay: Inhibition of Btk (unknown origin) by FRET assay

Measured: IC50

Sequence of Vascular endothelial growth factor receptor 2 (P35968 whole entry): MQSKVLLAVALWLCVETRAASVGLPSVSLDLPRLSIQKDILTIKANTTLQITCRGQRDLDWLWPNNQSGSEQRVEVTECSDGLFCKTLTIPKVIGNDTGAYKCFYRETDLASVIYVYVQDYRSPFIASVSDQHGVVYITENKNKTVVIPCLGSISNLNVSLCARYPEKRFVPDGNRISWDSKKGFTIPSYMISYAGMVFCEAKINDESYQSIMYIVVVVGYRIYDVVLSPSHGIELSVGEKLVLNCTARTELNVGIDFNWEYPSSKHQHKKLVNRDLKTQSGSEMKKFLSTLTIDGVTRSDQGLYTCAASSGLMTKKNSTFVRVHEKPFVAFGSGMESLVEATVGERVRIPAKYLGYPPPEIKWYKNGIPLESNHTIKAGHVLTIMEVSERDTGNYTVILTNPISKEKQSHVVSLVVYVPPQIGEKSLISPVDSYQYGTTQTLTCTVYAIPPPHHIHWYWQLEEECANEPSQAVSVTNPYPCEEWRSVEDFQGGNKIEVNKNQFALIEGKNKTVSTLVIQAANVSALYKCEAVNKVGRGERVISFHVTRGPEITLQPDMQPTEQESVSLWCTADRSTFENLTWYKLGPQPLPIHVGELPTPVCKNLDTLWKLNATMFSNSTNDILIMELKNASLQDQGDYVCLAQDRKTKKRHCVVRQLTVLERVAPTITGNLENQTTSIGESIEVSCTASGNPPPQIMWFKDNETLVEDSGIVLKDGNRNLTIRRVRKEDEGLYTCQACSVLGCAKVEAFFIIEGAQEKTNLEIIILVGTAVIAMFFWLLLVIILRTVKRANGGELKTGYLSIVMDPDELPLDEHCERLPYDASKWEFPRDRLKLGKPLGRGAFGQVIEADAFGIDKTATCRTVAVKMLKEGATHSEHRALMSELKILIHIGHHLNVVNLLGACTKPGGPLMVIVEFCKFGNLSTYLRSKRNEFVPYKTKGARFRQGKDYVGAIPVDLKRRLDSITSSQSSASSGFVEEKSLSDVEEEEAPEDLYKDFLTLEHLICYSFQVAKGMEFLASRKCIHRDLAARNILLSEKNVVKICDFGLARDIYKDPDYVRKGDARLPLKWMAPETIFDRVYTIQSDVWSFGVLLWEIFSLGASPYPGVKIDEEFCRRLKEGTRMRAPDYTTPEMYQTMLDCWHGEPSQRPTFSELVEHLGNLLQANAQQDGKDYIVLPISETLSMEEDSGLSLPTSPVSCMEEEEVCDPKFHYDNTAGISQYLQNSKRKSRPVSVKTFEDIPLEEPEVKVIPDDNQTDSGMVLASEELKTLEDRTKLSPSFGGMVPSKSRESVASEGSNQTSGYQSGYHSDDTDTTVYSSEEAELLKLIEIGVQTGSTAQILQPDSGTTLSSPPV
Sequence of Mast/stem cell growth factor receptor Kit (P10721 whole entry): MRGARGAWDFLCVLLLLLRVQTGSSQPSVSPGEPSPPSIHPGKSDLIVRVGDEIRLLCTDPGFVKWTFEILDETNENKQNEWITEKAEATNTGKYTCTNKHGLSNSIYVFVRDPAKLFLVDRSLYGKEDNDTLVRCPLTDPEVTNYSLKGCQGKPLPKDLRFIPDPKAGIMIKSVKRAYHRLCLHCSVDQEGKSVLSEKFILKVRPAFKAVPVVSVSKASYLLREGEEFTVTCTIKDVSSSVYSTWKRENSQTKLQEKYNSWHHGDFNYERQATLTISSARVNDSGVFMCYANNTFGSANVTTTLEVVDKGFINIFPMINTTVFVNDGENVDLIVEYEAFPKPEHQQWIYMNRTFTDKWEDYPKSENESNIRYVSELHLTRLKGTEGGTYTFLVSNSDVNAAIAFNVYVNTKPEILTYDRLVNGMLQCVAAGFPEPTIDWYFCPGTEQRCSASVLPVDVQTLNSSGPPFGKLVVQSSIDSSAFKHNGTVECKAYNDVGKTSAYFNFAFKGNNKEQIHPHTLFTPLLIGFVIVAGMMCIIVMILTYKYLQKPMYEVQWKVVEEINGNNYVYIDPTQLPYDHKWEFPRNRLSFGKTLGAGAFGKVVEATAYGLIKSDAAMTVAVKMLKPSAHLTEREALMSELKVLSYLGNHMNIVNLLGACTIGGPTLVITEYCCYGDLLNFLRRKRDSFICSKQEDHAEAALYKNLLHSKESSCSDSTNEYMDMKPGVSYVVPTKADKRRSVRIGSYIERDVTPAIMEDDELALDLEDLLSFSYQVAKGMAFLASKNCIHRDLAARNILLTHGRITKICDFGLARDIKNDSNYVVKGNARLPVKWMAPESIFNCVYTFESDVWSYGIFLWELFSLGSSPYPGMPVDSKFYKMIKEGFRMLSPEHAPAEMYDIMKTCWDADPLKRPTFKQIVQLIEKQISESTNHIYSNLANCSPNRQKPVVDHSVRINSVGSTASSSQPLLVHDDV
Sequence of Proto-oncogene tyrosine-protein kinase Src (P12931 2-536 limits assumed): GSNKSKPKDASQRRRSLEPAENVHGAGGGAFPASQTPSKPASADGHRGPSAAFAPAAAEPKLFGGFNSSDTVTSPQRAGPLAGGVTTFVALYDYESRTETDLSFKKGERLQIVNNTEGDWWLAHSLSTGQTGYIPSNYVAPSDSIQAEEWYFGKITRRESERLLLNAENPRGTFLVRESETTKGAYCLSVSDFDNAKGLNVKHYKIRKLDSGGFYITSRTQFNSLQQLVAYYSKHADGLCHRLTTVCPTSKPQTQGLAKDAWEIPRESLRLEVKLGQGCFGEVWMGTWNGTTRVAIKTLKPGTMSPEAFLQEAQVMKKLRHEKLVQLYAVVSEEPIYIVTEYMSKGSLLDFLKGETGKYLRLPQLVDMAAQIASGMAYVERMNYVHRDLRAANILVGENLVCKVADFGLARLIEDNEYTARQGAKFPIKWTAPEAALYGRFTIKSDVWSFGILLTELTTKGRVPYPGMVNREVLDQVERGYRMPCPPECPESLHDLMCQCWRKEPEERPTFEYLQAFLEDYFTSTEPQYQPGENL
Sequence of Serine/threonine-protein kinase B-raf (Homo sapiens, UniProt P15056, V600E) (P15056 2-766 V600E limits assumed): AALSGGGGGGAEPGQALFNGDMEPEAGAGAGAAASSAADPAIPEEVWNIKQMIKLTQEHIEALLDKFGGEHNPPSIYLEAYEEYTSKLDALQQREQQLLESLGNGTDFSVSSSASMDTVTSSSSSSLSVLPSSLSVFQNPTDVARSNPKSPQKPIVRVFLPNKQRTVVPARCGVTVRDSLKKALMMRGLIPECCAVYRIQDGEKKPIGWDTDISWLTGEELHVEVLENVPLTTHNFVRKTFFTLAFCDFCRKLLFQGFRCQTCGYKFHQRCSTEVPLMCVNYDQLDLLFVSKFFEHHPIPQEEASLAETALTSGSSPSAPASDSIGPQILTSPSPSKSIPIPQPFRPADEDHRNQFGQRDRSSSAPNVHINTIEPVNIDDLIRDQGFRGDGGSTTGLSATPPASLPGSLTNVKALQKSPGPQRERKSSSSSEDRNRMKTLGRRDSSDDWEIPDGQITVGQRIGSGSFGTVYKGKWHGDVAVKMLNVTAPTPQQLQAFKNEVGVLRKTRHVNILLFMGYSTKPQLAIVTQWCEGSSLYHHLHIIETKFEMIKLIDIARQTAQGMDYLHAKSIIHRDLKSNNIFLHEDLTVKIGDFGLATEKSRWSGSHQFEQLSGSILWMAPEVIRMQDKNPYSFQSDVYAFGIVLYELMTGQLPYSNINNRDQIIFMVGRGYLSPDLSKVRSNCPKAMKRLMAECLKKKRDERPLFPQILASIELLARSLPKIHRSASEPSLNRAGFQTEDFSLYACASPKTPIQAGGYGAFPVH
Sequence of RAF proto-oncogene serine/threonine-protein kinase (P04049 whole entry): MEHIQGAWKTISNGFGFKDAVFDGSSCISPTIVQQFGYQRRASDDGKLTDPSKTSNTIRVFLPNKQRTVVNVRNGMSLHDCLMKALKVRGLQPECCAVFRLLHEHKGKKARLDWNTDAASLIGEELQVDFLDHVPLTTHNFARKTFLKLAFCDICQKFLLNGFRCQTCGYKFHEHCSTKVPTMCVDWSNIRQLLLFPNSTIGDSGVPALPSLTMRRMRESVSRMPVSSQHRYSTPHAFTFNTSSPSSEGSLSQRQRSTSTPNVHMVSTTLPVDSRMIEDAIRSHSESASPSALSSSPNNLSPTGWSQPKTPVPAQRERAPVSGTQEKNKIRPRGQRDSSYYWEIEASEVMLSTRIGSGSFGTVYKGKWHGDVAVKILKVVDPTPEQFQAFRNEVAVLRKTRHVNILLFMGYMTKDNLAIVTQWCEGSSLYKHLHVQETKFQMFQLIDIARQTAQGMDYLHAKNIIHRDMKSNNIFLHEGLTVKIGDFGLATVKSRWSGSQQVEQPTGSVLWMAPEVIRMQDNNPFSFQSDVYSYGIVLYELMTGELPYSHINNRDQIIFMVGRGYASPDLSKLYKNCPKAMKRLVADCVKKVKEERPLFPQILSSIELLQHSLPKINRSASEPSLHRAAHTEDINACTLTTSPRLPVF
Sequence of Serine/threonine-protein kinase B-raf (Homo sapiens, UniProt P15056) (P15056 whole entry): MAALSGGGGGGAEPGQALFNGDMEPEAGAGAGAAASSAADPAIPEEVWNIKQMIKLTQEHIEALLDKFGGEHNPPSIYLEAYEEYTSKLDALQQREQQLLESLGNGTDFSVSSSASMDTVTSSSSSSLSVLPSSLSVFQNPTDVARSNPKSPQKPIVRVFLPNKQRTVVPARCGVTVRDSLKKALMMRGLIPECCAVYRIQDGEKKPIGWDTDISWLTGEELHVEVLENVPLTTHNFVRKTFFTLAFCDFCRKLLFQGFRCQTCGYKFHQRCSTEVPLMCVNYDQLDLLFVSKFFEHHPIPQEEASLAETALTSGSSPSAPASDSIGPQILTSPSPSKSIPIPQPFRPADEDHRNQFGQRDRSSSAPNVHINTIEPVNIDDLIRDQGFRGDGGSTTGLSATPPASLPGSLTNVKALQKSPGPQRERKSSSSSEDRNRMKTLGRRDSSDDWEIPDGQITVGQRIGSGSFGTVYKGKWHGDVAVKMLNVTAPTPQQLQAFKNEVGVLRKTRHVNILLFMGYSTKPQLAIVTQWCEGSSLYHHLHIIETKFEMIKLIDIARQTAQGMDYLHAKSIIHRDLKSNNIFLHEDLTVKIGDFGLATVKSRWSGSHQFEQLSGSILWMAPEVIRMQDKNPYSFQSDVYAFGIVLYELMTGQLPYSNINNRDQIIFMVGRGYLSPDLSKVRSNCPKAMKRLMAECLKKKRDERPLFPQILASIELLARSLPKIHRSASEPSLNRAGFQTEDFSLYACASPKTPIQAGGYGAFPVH

O=C(c1c(F)ccc(NS(=O)(=O)c2ccc(C(F)(F)F)cc2)c1F)c1c[nH]c2ncncc12
≤ 10 µM: [1] | [2] | [3] | [4] | [5]

O=C(c1c(F)ccc(NS(=O)(=O)N2CCOCC2)c1F)c1c[nH]c2ncncc12
≤ 10 µM: [1] | [2] | [6] | [7]

CCCS(=O)(=O)Nc1ccc(F)c(C(=O)c2c[nH]c3ncnc(C)c23)c1F
≤ 10 µM: [1] | [2] | [6] | [3] | [7] | [4]

O=C(c1cccc(NS(=O)(=O)N2CCOCC2)c1F)c1c[nH]c2ncncc12
≤ 10 µM: [1] | [2] | [7] | [8]

CCCS(=O)(=O)Nc1ccc(F)c(C(=O)c2c[nH]c3ncncc23)c1F
≤ 10 µM: [9] | [10] | [2] | [5]

O=C(c1c(F)ccc(NS(=O)(=O)c2ccc(F)cc2F)c1F)c1c[nH]c2ncncc12
≤ 10 µM: [1] | [2] | [6] | [3]

O=C(c1c(F)ccc(NS(=O)(=O)C2CCCCC2)c1F)c1c[nH]c2ncncc12
≤ 10 µM: [1] | [2] | [6] | [3] | [7]

O=C(c1cccc(NS(=O)(=O)CC(F)(F)F)c1F)c1c[nH]c2ncncc12
≤ 10 µM: [1] | [2] | [8]

O=C(c1cccc(NS(=O)(=O)c2c(F)cccc2F)c1F)c1c[nH]c2ncncc12
≤ 10 µM: [10] | [2] | [11] | [3] | [7] | [4]
